Assay results: BindingDB's records for doi:10.7270/Q2W37TR5 (Nmmlsc, 2009)

Molecular target: Ras-related C3 botulinum toxin substrate 1 (Mus musculus, UniProt P63001)
Assay: wildtype Rac1 GTP binding inhibitors, SAR follow-up, biochemical, additional analogs, multiplex bead flow cytometry (AID 2040)
[1] = inactive by the depositor's call

SMILES: O=C1Nc2c(Cl)cccc2C1=C1Nc2ccccc2C1=O
- EC50: 30 µM

SMILES: O=C1Nc2c(Br)cccc2C1=C1Nc2ccccc2C1=O
- EC50: 30 µM

SMILES: O=C1Nc2c(F)cccc2C1=C1Nc2ccccc2C1=O
- EC50: 34.6 µM

SMILES: O=C1NC(=O)/C(=C2/C(=O)Nc3ccccc32)N1
- EC50: 2.64 µM

SMILES: O=C1Nc2cccc(Br)c2/C1=C1/Cc2ccccc2C1=O
- EC50 [1]: 12.1 µM

SMILES: O=C1Nc2ccc(Br)cc2C1=C1Nc2ccccc2C1=O
- EC50: 16.1 µM

SMILES: COc1ccc(S(=O)(=O)n2c(N)c(C#N)c(-c3ccccc3)c2C(=O)c2ccc(Br)cc2)cc1
- EC50 [1]: 30 µM

SMILES: O=[N+]([O-])c1ccc(C#Cc2ccccc2)cc1
- EC50 [1]: 30 µM

SMILES: O=C(C#Cc1ccccc1)c1ccc(OC(F)(F)F)cc1
- EC50 [1]: 30 µM

SMILES: COc1ccc(C(=O)C#Cc2ccccc2)cc1 [1-(4-methoxyphenyl)-3-phenyl-2-propyn-1-one]
- EC50 [1]: 30 µM

SMILES: O=C(C#Cc1ccccc1)c1ccc([N+](=O)[O-])cc1 [1-(4-nitrophenyl)-3-phenyl-2-propyn-1-one]
- EC50 [1]: 30 µM

SMILES: COc1ccc2cc(CC(=O)O)ccc2c1 [2-(6-methoxynaphthalen-2-yl)ethanoic acid]
- EC50 [1]: 30 µM

SMILES: CC(=O)Oc1ccccc1C(=O)O [2-(acetyloxy)benzoic acid]
- EC50 [1]: 30 µM

SMILES: O=C1Nc2ccccc2/C1=C1/Nc2ccccc2C1=O [2-[(3Z)-2-oxo-2,3-dihydro-1H-indol-3-ylidene]-2,3-dihydro-1H-indol-3-one]
- EC50: 30 µM

SMILES: CCCCS(=O)(=O)n1c(N)c(C#N)c(-c2cc(OC)c(OC)c(OC)c2)c1C(=O)c1ccccc1 [2-amino-5-benzoyl-1-butylsulfonyl-4-(3,4,5-trimethoxyphenyl)-3-pyrrolecarbonitrile]
- EC50 [1]: 30 µM

SMILES: COc1ccc(S(=O)(=O)n2c(N)c(C#N)c(-c3cncc(Br)c3)c2C(=O)c2ccccc2)cc1 [2-amino-5-benzoyl-4-(5-bromo-3-pyridinyl)-1-(4-methoxyphenyl)sulfonyl-3-pyrrolecarbonitrile]
- EC50 [1]: 9.84 µM

SMILES: COc1ccc(-c2c(C#N)c(N)n(S(C)(=O)=O)c2C(=O)c2ccccc2)cc1Br [2-azanyl-4-(3-bromanyl-4-methoxy-phenyl)-1-methylsulfonyl-5-(phenylcarbonyl)pyrrole-3-carbonitrile]
- EC50 [1]: 30 µM

SMILES: COc1cc(-c2c(C#N)c(N)n(S(=O)(=O)c3c(C(C)C)cc(C(C)C)cc3C(C)C)c2C(=O)c2ccccc2)cc(OC)c1OC [2-azanyl-5-(phenylcarbonyl)-4-(3,4,5-trimethoxyphenyl)-1-[2,4,6-tri(propan-2-yl)phenyl]sulfonyl-pyrrole-3-carbonitrile]
- EC50 [1]: 75.3 µM

SMILES: O=C1N=c2ccccc2=C1c1[nH]c2ccccc2c1NO [3-[3-(hydroxyamino)-1H-indol-2-yl]-2-indolone]
- EC50: 30 µM

SMILES: O=C(C#Cc1ccccc1)c1cccnc1 [3-phenyl-1-pyridin-3-ylprop-2-yn-1-one]
- EC50 [1]: 30 µM

SMILES: COC(=O)c1ccc(C(=O)C#Cc2ccccc2)cc1 [4-(1-oxo-3-phenylprop-2-ynyl)benzoic acid methyl ester]
- EC50 [1]: 30 µM

SMILES: N#Cc1ccc(C(=O)C#Cc2ccccc2)cc1 [4-(3-phenylprop-2-ynoyl)benzenecarbonitrile]
- EC50 [1]: 30 µM

SMILES: O=C1N=c2ccc(Br)cc2=C1c1[nH]c2ccccc2c1NO [5-bromanyl-3-[3-(oxidanylamino)-1H-indol-2-yl]indol-2-one]
- EC50: 30 µM

SMILES: O=C1N=c2c(Br)cccc2=C1c1[nH]c2ccccc2c1NO [7-bromanyl-3-[3-(oxidanylamino)-1H-indol-2-yl]indol-2-one]
- EC50: 30 µM

SMILES: O=C1N=c2c(Cl)cccc2=C1c1[nH]c2ccccc2c1NO [7-chloro-3-[3-(hydroxyamino)-1H-indol-2-yl]-2-indolone]
- EC50: 30 µM

SMILES: O=C1N=c2c(F)cccc2=C1c1[nH]c2ccccc2c1NO [7-fluoro-3-[3-(hydroxyamino)-1H-indol-2-yl]-2-indolone]
- EC50: 30 µM

SMILES: O=C1Nc2c(Br)cccc2/C1=C1/Cc2ccccc2C1=O [(3E)-7-bromo-3-(3-oxo-1H-inden-2-ylidene)-1H-indol-2-one]
- EC50 [1]: 30 µM

SMILES: O=C1NC(=S)N/C1=C1\C(=O)Nc2ccccc21 [(3Z)-3-(5-oxo-2-sulfanylideneimidazolidin-4-ylidene)-1H-indol-2-one]
- EC50: 1.67 µM

SMILES: O=C1Nc2ccccc2/C1=C1/Cc2ccccc2C1=O [UNM-0000305763]
- EC50 [1]: 30 µM

SMILES: N#Cc1c(-c2ccc(Cl)cc2)c(C(=O)c2ccccc2)n(S(=O)(=O)c2ccc([N+](=O)[O-])cc2)c1N [UNM-0000305780]
- EC50 [1]: 30 µM

SMILES: COc1ccc(S(=O)(=O)n2c(N)c(C#N)c(-c3cc(Br)c(OC)c(OC)c3)c2C(=O)c2ccccc2)cc1 [UNM-0000305782]
- EC50 [1]: 30 µM

SMILES: O=C(C#Cc1ccccc1)c1ccccc1[N+](=O)[O-] [UNM-0000306038]
- EC50 [1]: 30 µM

SMILES: O=C(C#Cc1ccccc1)c1ccccc1 [UNM-0000306039]
- EC50 [1]: 30 µM

SMILES: O=C(C#Cc1ccccc1)c1ccc(Cl)cc1 [UNM-0000306055]
- EC50 [1]: 30 µM

SMILES: O=C(C#Cc1ccccc1)c1ccc(F)cc1 [UNM-0000306059]
- EC50 [1]: 30 µM

SMILES: CC1=C(CC(=O)O)c2cc(F)ccc2/C1=C/c1ccc([S+](C)[O-])cc1 (stereo not drawn) [UNM-0000306136]
- EC50 [1]: 30 µM

SMILES: C[C@@H](C(=O)O)c1cccc(Oc2ccccc2)c1 [calcium;2-(3-phenoxyphenyl)propanoic acid;hydrate]
- EC50: 30 µM

SMILES: CSc1ccc(/C=C2/C(C)=C(CC(=O)O)c3cc(F)ccc32)cc1 [{6-Fluoro-2-methyl-3-[1-(4-methylsulfanyl-phenyl)-meth-(E)-ylidene]-3H-inden-1-yl}-acetic acid]
- EC50 [1]: 54.7 µM
